# Where two headings read alike, the source gives them in different places.
# Tests used:
# CB1 receptor [1] = conditions: ref Terry et al., 2010, cited from earlier work; for Specific binding (%) / VT (striatum) Baseline / VT (striatum) Preblocked: monkey striatum
# Lipophilicity LogD7.4 = type: physicochemical; conditions: n-octanol / 0.15 M sodium phosphate buffer pH 7.4, room temperature, 6 measurements
# CB1 receptor [2] = target: T1, CB1 receptor (Homo sapiens, UniProt P21554); conditions: cited from earlier work; for VT / Intersubject Variability of VT (SD/mean): human; for VT: mean±SD
# T1 sequence (P21554 whole entry): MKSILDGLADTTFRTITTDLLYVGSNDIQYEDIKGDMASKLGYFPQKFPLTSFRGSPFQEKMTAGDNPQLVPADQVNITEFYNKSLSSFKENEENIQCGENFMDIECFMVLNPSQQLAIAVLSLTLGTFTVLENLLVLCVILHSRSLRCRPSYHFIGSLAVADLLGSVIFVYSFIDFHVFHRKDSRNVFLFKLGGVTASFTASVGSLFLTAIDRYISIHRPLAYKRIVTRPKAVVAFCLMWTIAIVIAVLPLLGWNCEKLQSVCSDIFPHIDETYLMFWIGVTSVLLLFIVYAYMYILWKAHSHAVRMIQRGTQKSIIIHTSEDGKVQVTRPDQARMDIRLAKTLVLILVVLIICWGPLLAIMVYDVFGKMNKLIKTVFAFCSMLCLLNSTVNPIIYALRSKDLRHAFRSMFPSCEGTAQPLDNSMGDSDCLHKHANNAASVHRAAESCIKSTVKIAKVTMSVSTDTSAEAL
# CB1 receptor [3] = target: T1, CB1 receptor; type: binding
# [4] = Frontal, n=9, 120min, ref Terry et al., 2010
# [5] = Putamen, n=9, 120min, ref Terry et al., 2010
# [6] = Thalamus, n=9, 120min, ref Terry et al., 2010
# [7] = Frontal, n=17, 150min, ref Terry et al, 2009
# [8] = Putamen, n=17, 150min, ref Terry et al, 2009
# [9] = Thalamus, n=17, 150min, ref Terry et al, 2009
# [10] = human parietal cortex, displacement of [3H]MePPEP, n=6
# [11] = Cingulate, n=10, 90min, ref Wong et al, 2010
# [12] = Globus pallidus, n=10, 90min, ref Wong et al, 2010
# [13] = Putamen, n=10, 90min, ref Wong et al, 2010
structure (smiles),measurement,setting,value
[2H]C([18F])Oc1cccc([C@H]2C[C@@H](N[C@H](C)c3ccccc3)C(=O)N2c2ccc(C(F)(F)F)cc2)c1 (stereo partly shown) [^18F-FMPEP-d2],percentage of specific binding in monkey brain,CB1 receptor [1]; monkey brain,85%
same,Specific binding (%),CB1 receptor [1],85%
same,VT (striatum) Baseline,CB1 receptor [1],35.4 mL·cm^−3
same,VT (striatum) Preblocked,CB1 receptor [1],5.4 mL·cm^−3
same,LogD7.4,Lipophilicity LogD7.4,4.24±0.08
same,VT,CB1 receptor [2]; [4],22.7±6.4 mL · cm^−3
same,Intersubject Variability of VT (SD/mean),CB1 receptor [2]; [4],28%
same,VT,CB1 receptor [2]; [5],24.3±7.2 mL · cm^−3
same,Intersubject Variability of VT (SD/mean),CB1 receptor [2]; [5],29%
same,VT,CB1 receptor [2]; [6],9.6±2.5 mL · cm^−3
same,Intersubject Variability of VT (SD/mean),CB1 receptor [2]; [6],26%
same,peak brain uptake,"CB1 receptor [2]; species not given, ref Terry et al., 2010",~ 6 SUV
C[C@@H](N[C@@H]1C[C@H](c2cccc(O[11CH3])c2)N(c2ccc(C(F)(F)F)cc2)C1=O)c1ccccc1 [^11C-MePPEP],Specific binding (%),CB1 receptor [1],88%
same,VT (striatum) Baseline,CB1 receptor [1],24.3 mL·cm^−3
same,VT (striatum) Preblocked,CB1 receptor [1],2.9 mL·cm^−3
same,LogD7.4,Lipophilicity LogD7.4,4.77±0.27
same,VT,CB1 receptor [2]; [7],22.4±12.8 mL · cm^−3
same,Intersubject Variability of VT (SD/mean),CB1 receptor [2]; [7],57%
same,VT,CB1 receptor [2]; [8],29.1±17.4 mL · cm^−3
same,Intersubject Variability of VT (SD/mean),CB1 receptor [2]; [8],60%
same,VT,CB1 receptor [2]; [9],11.2±5.0 mL · cm^−3
same,Intersubject Variability of VT (SD/mean),CB1 receptor [2]; [9],44%
COc1ccc(-c2c(C#N)c(C(=O)NN3CCCCC3)nn2-c2ccc(Cl)cc2Cl)cc1 [OMAR],Ki,CB1 receptor [3]; [10],2.05 nM
"N#Cc1ccc(S(=O)(=O)NC(=N)N2CC(c3ccccc3)C(c3ccc(Cl)cc3)=N2)cc1 (stereo not drawn) [^11C-SD5024, [cyano-^11C](−)-3-(4-chlorophenyl)-N-[(4-cyanophenyl)sulfonyl]-4-phenyl-4,5-dihydro-1H-pyrazole-1-carboxamidine]",Ki,CB1 receptor [3]; [10],0.47 nM
Cc1ccc(OC(C)(C)C(=O)N[C@@H](C)[C@@H](Cc2ccc(OCCF)cc2)c2cccc(C#N)c2)nc1 [^18F-MK-9470],Intersubject Variability of VT (SD/mean),"CB1 receptor [2]; Frontal, n=12, 700, 360, 150min, ref Sanabria-Bohórquez et al., 2010",58%
same,Intersubject Variability of VT (SD/mean),"CB1 receptor [2]; Putamen, n=12, 700, 360, 150min, ref Sanabria-Bohórquez et al., 2010",53%
same,Intersubject Variability of VT (SD/mean),"CB1 receptor [2]; Thalamus, n=12, 700, 360, 150min, ref Sanabria-Bohórquez et al., 2010",60%
COc1ccc(-c2c(C#N)c(C(=O)NN3CCCCC3)nn2-c2ccc(Cl)cc2Cl)cc1 [^11C-OMAR],Ki,CB1 receptor [3],2.05 nM
same,VT,CB1 receptor [2]; [11],1.23±0.16 mL · cm^−3
same,Intersubject Variability of VT (SD/mean),CB1 receptor [2]; [11],13%
same,VT,CB1 receptor [2]; [12],1.47±0.25 mL · cm^−3
same,Intersubject Variability of VT (SD/mean),CB1 receptor [2]; [12],17%
same,VT,CB1 receptor [2]; [13],1.32±0.20 mL · cm^−3
same,Intersubject Variability of VT (SD/mean),CB1 receptor [2]; [13],15%
